Experimental findings from patent publication US10703748B2, “Diazanaphthalen-3-yl carboxamides and preparation and use thereof” (Samumed, LLC, priority 2017, dated 2020) are described below.

Experiment [1] has as its target GSK3β kinase (Homo sapiens, UniProt P49841). Description: GSK3β kinase activity (Ser/Thr 09 peptide Z-lyte FRET assay). The format is biochemical. Particulars: recombinant kinase, 46 μM ATP, one hour at room temperature; read-out: EC50.
For experiment [2], the target named is DYRK1A kinase (Homo sapiens, UniProt Q13627). Description: DYRK1A kinase activity (Ser/Thr 18 peptide Z-lyte FRET assay).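 Also: kinase activity read as coumarin/fluorescein emission ratio after development step, with unphosphorylated and phosphorylated peptide forms setting 0% and 100% controls, values from dose-response curves.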 The experiment is classed as biochemical. Particulars: recombinant DYRK1A, 30 μM ATP, one hour at room temperature.
Experiment [3] has as its system IL-6. In words: IL-6 inhibition in LPS-stimulated human peripheral blood mononuclear cells (HTRF). Conditions: Homo sapiens, PBMC; for EC50: 22 h; for inhibition at 10 µM: read-out: percentage in parentheses after EC50 >10. In general terms: In TR-FRET formats the signal depends on donor and acceptor labels being close together.
In experiment [4] the test system is Wnt-responsive Sp5-Luc reporter in SW480 colon carcinoma cells. Description: Screening assay for Wnt activity (Sp5-Luc reporter gene assay). Particulars: Homo sapiens; for EC50: SW480; for inhibition at 10 µM: SW480, read-out: percent inhibition at 10 μM.
The subject of experiment [5] is secreted cytokines TNFα, IL-6 and KC-GRO. In words: Secreted cytokines in Lipopolysaccharide-stimulated BV-2 cells (Table 9 does not say which cytokine). The experiment is classed as cell-based, mouse. Particulars: Mus musculus, BV-2, 5 h; read-out: EC50.
For experiment [6], the system named is α-smooth muscle actin (aSMA) positive LL29 cells. Description: Inhibition of the fibrotic process: αSMA staining in TGF-β1 treated LL29 fibroblasts from IPF patients. Conditions: Homo sapiens, Fibroblast; for EC50: 96 h; for inhibition at 10 µM: read-out: percentage in parentheses after EC50 >10.
Experiment [7] concerns SW480 colon carcinoma cells. Description: Cell viability assay (CellTiter-Glo). Conditions: Homo sapiens; for EC50: SW480, 96 h; for inhibition at 10 µM: SW480, read-out: percent inhibition at 10 μM. (ATP-based viability assays read luminescence as a measure of living cells.)

GSK3β kinase, sequence (P49841 whole entry): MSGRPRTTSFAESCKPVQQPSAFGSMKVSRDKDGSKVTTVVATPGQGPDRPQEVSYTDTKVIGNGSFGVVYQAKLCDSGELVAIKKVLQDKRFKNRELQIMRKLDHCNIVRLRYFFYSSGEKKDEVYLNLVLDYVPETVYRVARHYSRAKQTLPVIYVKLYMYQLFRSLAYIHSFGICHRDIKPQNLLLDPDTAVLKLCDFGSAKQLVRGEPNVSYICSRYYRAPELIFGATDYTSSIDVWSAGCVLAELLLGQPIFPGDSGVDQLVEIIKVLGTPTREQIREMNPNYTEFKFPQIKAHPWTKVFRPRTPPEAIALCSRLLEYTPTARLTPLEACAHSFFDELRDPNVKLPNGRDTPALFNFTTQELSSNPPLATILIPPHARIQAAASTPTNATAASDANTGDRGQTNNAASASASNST

Regarding `CN1CCC(n2cc(C(=O)Nc3ncc4ccc(-c5cnn(C)c5)cc4n3)cn2)CC1` [Compound 1136, N-(7-(1-Methyl-1H-pyrazol-4-yl)quinazolin-2-yl)-1-(1-methylpiperidin-4-yl)-1H-pyrazole-4-carboxamide], the EC50 in experiment [1] was 2530 nM; in experiment [2] it was 13 nM; in experiment [3], 3200 nM; in experiment [4], 323 nM; in experiment [5], 554 nM; in experiment [6] it was 1460 nM. The midpoint of the response in experiment [7], the EC50, lay at 2900 nM.
Take `CC(F)(F)CN1CCC(C(=O)Nc2cc3cc(-c4cnco4)cnc3cn2)CC1` [Compound 3257, 1-(2,2-Difluoropropyl)-N-(3-(oxazol-5-yl)-1,7-naphthyridin-6-yl)piperidine-4-carboxamide]: the EC50 in experiment [1] is 5300 nM; in experiment [2], 16 nM; in experiment [3], greater than 10000 nM; in experiment [4], greater than 10000 nM; in experiment [5], 458 nM; in experiment [6], greater than 10000 nM. This compound returned an EC50 in experiment [7] greater than 10000 nM. Further, the inhibition at 10 µM in experiment [3] turned out to be 3.2%; in experiment [4] it was 12.9%; in experiment [6], 36%; in experiment [7], 15%.
On to `Cn1cc(-c2ccc3cnc(NC(=O)c4cnn(C5CCNCC5)c4)cc3n2)cn1` [Compound 228, N-(2-(1-Methyl-1H-pyrazol-4-yl)-1,6-naphthyridin-7-yl)-1-(piperidin-4-yl)-1H-pyrazole-4-carboxamide], for which the concentration for a half-maximal effect (EC50) was 753 nM in experiment [1]; 6 nM in experiment [2]; 723 nM in experiment [3]; 76 nM in experiment [4]; 207 nM in experiment [5]; 376 nM in experiment [6]. The compound also displayed an EC50 in experiment [7] of 105 nM.
`O=C(Nc1cc2nc(-c3cnco3)ccc2cn1)c1ccncc1` [Compound 592, N-(2-(Oxazol-5-yl)-1,6-naphthyridin-7-yl)isonicotinamide]: the EC50 is greater than 10000 nM in experiment [1]; 29 nM in experiment [2]; greater than 10000 nM in experiment [3]; greater than 10000 nM in experiment [4]; 449 nM in experiment [5]; 9 nM in experiment [6]. This compound also showed an EC50 in experiment [7] greater than 10000 nM. Also, the inhibition at 10 µM in experiment [3] amounted to 25.3%; in experiment [4], 5%; in experiment [7] it was 11.7%.
On to `CN1CCC(n2cc(C(=O)Nc3cc4nc(-c5cnn(C)c5)ccc4cn3)cn2)CC1` [Compound 229, N-(2-(1-Methyl-1H-pyrazol-4-yl)-1,6-naphthyridin-7-yl)-1-(1-methylpiperidin-4-yl)-1H-pyrazole-4-carboxamide], for which the EC50 in experiment [1] stood at 2900 nM; in experiment [2], 11 nM; in experiment [3], 859 nM; in experiment [4], 90 nM; in experiment [5], 62 nM; in experiment [6] it was 318 nM. The same compound returned an EC50 in experiment [7] of 122 nM.
In the case of `CN1CCC(Nc2cc(C(=O)Nc3cc4nc(-c5cnn(C)c5)ccc4cn3)ccn2)CC1` [Compound 4538, N-(2-(1-Methyl-1H-pyrazol-4-yl)-1,6-naphthyridin-7-yl)-2-((1-methylpiperidin-4-yl)amino)isonicotinamide], the EC50 is greater than 10000 nM in experiment [1]; 3 nM in experiment [2]; 3430 nM in experiment [3]; 278 nM in experiment [4]; 47 nM in experiment [5]; 708 nM in experiment [6]. In experiment [7], the EC50 came to 952 nM.
For the compound `Cn1cc(-c2cnc3cnc(NC(=O)CC4CNCCO4)cc3c2)cn1` (stereo not shown) [Compound 2807, N-(3-(1-Methyl-1H-pyrazol-4-yl)-1,7-naphthyridin-6-yl)-2-(morpholin-2-yl) acetamide], the EC50 in experiment [1] is 4940 nM; in experiment [2], 74 nM; in experiment [3] it was 7310 nM; in experiment [4], greater than 10000 nM; in experiment [5] it was 919 nM; in experiment [6], greater than 10000 nM. Besides, the EC50 in experiment [7] was greater than 10000 nM. Moreover, the inhibition at 10 µM is 0% in experiment [4], 35.2% in experiment [6] and 7.9% in experiment [7].
For `CN1CCN(c2cccc(C(=O)Nc3ncc4ccc(-c5cnn(C)c5)cc4n3)c2)CC1` [Compound 1047, N-(7-(1-Methyl-1H-pyrazol-4-yl)quinazolin-2-yl)-3-(4-methylpiperazin-1-yl) benzamide], the EC50 in experiment [1] was 661 nM; in experiment [2], 8 nM; in experiment [3] it was 3710 nM; in experiment [4], 573 nM; in experiment [5] it was 780 nM; in experiment [6], 1930 nM. This compound also registered an EC50 in experiment [7] of 8470 nM.
Consider `CN1CCN(c2ccc(C(=O)Nc3ncc4ccc(-c5cnn(C)c5)cc4n3)cn2)CC1` [Compound 1058, N-(7-(1-Methyl-1H-pyrazol-4-yl)quinazolin-2-yl)-6-(4-methylpiperazin-1-yl)nicotinamide], for which the EC50 in experiment [1] is 3130 nM; in experiment [2], 9 nM; in experiment [3], greater than 10000 nM; in experiment [4] it was 2150 nM; in experiment [5], 286 nM; in experiment [6], greater than 10000 nM. The compound also had an EC50 in experiment [7] of 9430 nM. The inhibition at 10 µM in experiment [3] was 3%; in experiment [6], 8.8%.
With `CC(C)n1cc(C(=O)Nc2ncc3ccc(-c4cncc(NC5CCN(C)CC5)n4)cc3n2)cn1` [Compound 1813, 1-Isopropyl-N-(7-(6-((1-methylpiperidin-4-yl)amino)pyrazin-2-yl)quinazolin-2-yl)-1H-pyrazole-4-carboxamide], the EC50 in experiment [1] was greater than 10000 nM; in experiment [2] it was 2 nM; in experiment [3], greater than 10000 nM; in experiment [4] it was 396 nM; in experiment [5] it was 952 nM; in experiment [6], 5820 nM. Besides, the EC50 in experiment [7] was 1000 nM. Moreover, the inhibition at 10 µM in experiment [3] amounted to 42%.
`Cn1cncc1-c1cnc2cnc(NC(=O)c3ccc(F)cc3)cc2c1` [Compound 3168, 4-Fluoro-N-(3-(1-methyl-1H-imidazol-5-yl)-1,7-naphthyridin-6-yl) benzamide]: the EC50 in experiment [1] is greater than 10000 nM; in experiment [2], 8 nM; in experiment [3], greater than 10000 nM; in experiment [4] it was greater than 10000 nM; in experiment [5] it was 2600 nM; in experiment [6] it was greater than 10000 nM. The same compound had an EC50 in experiment [7] greater than 10000 nM. Also, the inhibition at 10 µM was 0% in experiment [3], 17.3% in experiment [4], 10.2% in experiment [6] and 25.8% in experiment [7].
For the compound `CN1CCN(c2cc(C(=O)Nc3ncc4ccc(-c5cnc(N)s5)cc4n3)ccn2)CC1` [Compound 1589, N-(7-(2-aminothiazol-5-yl)quinazolin-2-yl)-2-(4-methylpiperazin-1-yl)isonicotinamide], the EC50 in experiment [1] was 9990 nM; in experiment [2], 5 nM; in experiment [3], 2880 nM; in experiment [4], 184 nM; in experiment [5] it was 221 nM; in experiment [6], 911 nM. Also, in experiment [7], the EC50 was 331 nM.
Regarding `Cc1ncc(-c2ccc3cnc(NC(=O)c4cccnc4)cc3n2)s1` [Compound 642, N-(2-(2-Methylthiazol-5-yl)-1,6-naphthyridin-7-yl)nicotinamide], the EC50 was 3060 nM in experiment [1]; 6 nM in experiment [2]; greater than 10000 nM in experiment [3]; 869 nM in experiment [4]; 1300 nM in experiment [5]; 988 nM in experiment [6]. Further, in experiment [7], it took 1030 nM to reach a half-maximal effect (EC50). Also, the inhibition at 10 µM in experiment [3] came out at 22.4%.

By EC50 is commonly meant the concentration at which the effect is half-maximal.
